From US20250161228A1, “COMPOSITIONS COMPRISING ULTRAFINE BUBBLES AND METHODS OF USING THEREOF IN A METHOD OF PRODUCING AND DELIVERING ACTIVE PHARMACEUTICAL INGREDIENTS AND OTHER DISSOLVED SOLUTES” (Hydrosome IP, LLC, priority 2023, published 2025)

Tested on: Human embryonic kidney (HEK) cells
Assay: Intracellular zinc uptake study, colorimetric assay at 540 nm
Type: cell-based
Procedure: Human embryonic kidney (HEK) cells were treated with a composition prepared in accordance with the disclosure, the composition comprising zinc in a Cellular Hydration Water Advanced Zinc Formulation (Zinc Formulation) to test intracellular zinc uptake in vitro. The composition comprised 93 micromolar zinc (II) ions. The HEK cells were treated with compositions comprising 10%, 50%, or 100% Zinc Formulation. Zinc content was measured at 15, 30, 45, and 60 minutes using a colorimetric assay measuring light absorbance at 540 nm. The changes in intracellular zinc content were compared to a control group of HEK cells treated with a ZnSO4 solution.

## O=S(=O)([O-])[O-].[Zn+2] [ZnSO4]
10% composition or its ZnSO4 control, 30 minutes
  increase in intracellular zinc content: 20.4%
50% composition or its ZnSO4 control, 15 minutes
  increase in intracellular zinc content: 42%
50% composition or its ZnSO4 control, 30 minutes
  increase in intracellular zinc content: 29.6%
50% composition or its ZnSO4 control, 60 minutes
  increase in intracellular zinc content: 42.2%
